Laboratory results taken from PubChem BioAssay (NCI).
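Cells were grown in 96-well plates and exposed to each compound for 48 hours at five concentrations; endpoints were interpolated linearly between bracketing concentrations, or set to the highest concentration if not reached. GI50: concentration for 50% inhibition of growth. TGI: concentration producing complete growth inhibition.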

Key:
Assay in all cases: NCI anticancer screen, dose series, 48 h; in the data active means GI50 below about 0.43 µM; inactive means the rest
786-0 renal = tested on: 786-0 renal
A498 renal = tested on: A498 renal
ACHN renal = tested on: ACHN renal
BT-549 breast = tested on: BT-549 breast
CAKI-1 renal = tested on: CAKI-1 renal
COLO 205 colon = tested on: COLO 205 colon
DU-145 prostate = tested on: DU-145 prostate
EKVX NSCLC = tested on: EKVX NSCLC
HCC-2998 colon = tested on: HCC-2998 colon
HCT-116 colon = tested on: HCT-116 colon
HCT-15 colon = tested on: HCT-15 colon
HL-60(TB) leukemia = tested on: HL-60(TB) leukemia
HOP-62 NSCLC = tested on: HOP-62 NSCLC
HS 578T breast = tested on: HS 578T breast
HT29 colon = tested on: HT29 colon
IGROV1 ovarian = tested on: IGROV1 ovarian
K-562 leukemia = tested on: K-562 leukemia
KM12 colon = tested on: KM12 colon
LOX IMVI melanoma = tested on: LOX IMVI melanoma
MALME-3M melanoma = tested on: MALME-3M melanoma
MCF7 breast = tested on: MCF7 breast
MDA-MB-231 breast = tested on: MDA-MB-231 breast
MDA-MB-435 = tested on: MDA-MB-435
MOLT-4 leukemia = tested on: MOLT-4 leukemia
NCI-H226 lung = tested on: NCI-H226 lung
NCI-H23 lung = tested on: NCI-H23 lung
NCI-H522 lung = tested on: NCI-H522 lung
NCI/ADR-RES ovarian = tested on: NCI/ADR-RES ovarian
OVCAR-3 ovarian = tested on: OVCAR-3 ovarian
OVCAR-4 ovarian = tested on: OVCAR-4 ovarian
OVCAR-5 ovarian = tested on: OVCAR-5 ovarian
OVCAR-8 ovarian = tested on: OVCAR-8 ovarian
PC-3 prostate = tested on: PC-3 prostate
RPMI-8226 leukemia = tested on: RPMI-8226 leukemia
RXF 393 renal = tested on: RXF 393 renal
SF-268 CNS = tested on: SF-268 CNS
SF-295 CNS = tested on: SF-295 CNS
SK-MEL-2 melanoma = tested on: SK-MEL-2 melanoma
SK-MEL-28 melanoma = tested on: SK-MEL-28 melanoma
SK-MEL-5 melanoma = tested on: SK-MEL-5 melanoma
SN12C renal = tested on: SN12C renal
SNB-19 CNS = tested on: SNB-19 CNS
SNB-75 CNS = tested on: SNB-75 CNS
SR leukemia = tested on: SR leukemia
SW-620 colon = tested on: SW-620 colon
T-47D breast = tested on: T-47D breast
TK-10 renal = tested on: TK-10 renal
U251 CNS = tested on: U251 CNS
UACC-257 melanoma = tested on: UACC-257 melanoma
UACC-62 melanoma = tested on: UACC-62 melanoma
UO-31 renal = tested on: UO-31 renal
A549 NSCLC = tested on: A549 NSCLC
CCRF-CEM leukemia = tested on: CCRF-CEM leukemia
HOP-92 NSCLC = tested on: HOP-92 NSCLC
M14 melanoma = tested on: M14 melanoma
NCI-H460 lung = tested on: NCI-H460 lung
SF-539 CNS = tested on: SF-539 CNS
SK-OV-3 ovarian = tested on: SK-OV-3 ovarian

CNc1[nH]c(=S)nc2sc3c(c12)CCCC3
> 75 µM: TGI (786-0 renal) | TGI (A498 renal) | TGI (ACHN renal) | TGI (BT-549 breast) | TGI (CAKI-1 renal) | TGI (COLO 205 colon) | TGI (DU-145 prostate) | TGI (EKVX NSCLC) | TGI (HCC-2998 colon) | TGI (HCT-116 colon) | TGI (HCT-15 colon) | TGI (HL-60(TB) leukemia) | TGI (HOP-62 NSCLC) | TGI (HS 578T breast) | TGI (HT29 colon) | TGI (IGROV1 ovarian) | TGI (K-562 leukemia) | TGI (KM12 colon) | TGI (LOX IMVI melanoma) | TGI (MALME-3M melanoma) | TGI (MCF7 breast) | TGI (MDA-MB-231 breast) | TGI (MDA-MB-435) | TGI (MOLT-4 leukemia) | TGI (NCI-H226 lung) | TGI (NCI-H23 lung) | TGI (NCI-H522 lung) | TGI (NCI/ADR-RES ovarian) | TGI (OVCAR-3 ovarian) | TGI (OVCAR-4 ovarian) | TGI (OVCAR-5 ovarian) | TGI (OVCAR-8 ovarian) | TGI (PC-3 prostate) | TGI (RPMI-8226 leukemia) | TGI (RXF 393 renal) | TGI (SF-268 CNS) | TGI (SF-295 CNS) | TGI (SK-MEL-2 melanoma) | TGI (SK-MEL-28 melanoma) | TGI (SK-MEL-5 melanoma) | TGI (SN12C renal) | TGI (SNB-19 CNS) | TGI (SNB-75 CNS) | TGI (SR leukemia) | TGI (SW-620 colon) | TGI (T-47D breast) | TGI (TK-10 renal) | TGI (U251 CNS) | TGI (UACC-257 melanoma) | TGI (UACC-62 melanoma) | TGI (UO-31 renal)

CCOC(=O)c1c(C)c2c(n1Cc1ccccc1)CSCC2=O
50.9 µM: TGI (LOX IMVI melanoma) | TGI (SF-539 CNS)
> 100 µM: TGI (A549 NSCLC) | TGI (ACHN renal) | TGI (CCRF-CEM leukemia) | TGI (DU-145 prostate) | TGI (EKVX NSCLC) | TGI (HCC-2998 colon) | TGI (HCT-15 colon) | TGI (HT29 colon) | TGI (IGROV1 ovarian) | TGI (K-562 leukemia) | TGI (OVCAR-4 ovarian) | TGI (OVCAR-8 ovarian) | TGI (RPMI-8226 leukemia) | TGI (SF-268 CNS) | TGI (SK-OV-3 ovarian) | TGI (SN12C renal) | TGI (SNB-19 CNS) | TGI (SNB-75 CNS) | TGI (SR leukemia) | TGI (U251 CNS) | TGI (UO-31 renal)
48.8 µM: TGI (COLO 205 colon)
44.7 µM: TGI (MCF7 breast)
29.9 µM: TGI (UACC-62 melanoma)
37.9 µM: TGI (KM12 colon)
47 µM: TGI (SW-620 colon)
55.1 µM: TGI (NCI-H460 lung)
54.1 µM: TGI (HL-60(TB) leukemia)
94.1 µM: TGI (UACC-257 melanoma)
49.2 µM: TGI (MALME-3M melanoma)
63.8 µM: TGI (NCI-H23 lung)
inactive: GI50 (786-0 renal) 24.1 µM | GI50 (A549 NSCLC) 30.6 µM | GI50 (ACHN renal) 18.8 µM | GI50 (BT-549 breast) 21 µM | GI50 (CAKI-1 renal) 11 µM | GI50 (CCRF-CEM leukemia) 29.9 µM | GI50 (COLO 205 colon) 20.3 µM | GI50 (DU-145 prostate) 21.9 µM | GI50 (EKVX NSCLC) 16.3 µM | GI50 (HCC-2998 colon) 25.4 µM | GI50 (HCT-116 colon) 11.8 µM | GI50 (HCT-15 colon) 19.7 µM | GI50 (HL-60(TB) leukemia) 18.8 µM | GI50 (HOP-62 NSCLC) 22.9 µM | GI50 (HOP-92 NSCLC) 1.21 µM | GI50 (HS 578T breast) 10.8 µM | GI50 (HT29 colon) 18.7 µM | GI50 (IGROV1 ovarian) 16.9 µM | GI50 (K-562 leukemia) 21.7 µM | GI50 (KM12 colon) 15 µM | GI50 (LOX IMVI melanoma) 14.8 µM | GI50 (M14 melanoma) 20 µM | GI50 (MALME-3M melanoma) 17.5 µM | GI50 (MCF7 breast) 17.7 µM | GI50 (MDA-MB-231 breast) 14.7 µM | GI50 (MDA-MB-435) 17.3 µM | GI50 (MOLT-4 leukemia) 12.2 µM | GI50 (NCI-H226 lung) 20.2 µM | GI50 (NCI-H23 lung) 17.2 µM | GI50 (NCI-H460 lung) 20.4 µM | GI50 (NCI-H522 lung) 14.8 µM | GI50 (NCI/ADR-RES ovarian) 16.7 µM | GI50 (OVCAR-3 ovarian) 17.5 µM | GI50 (OVCAR-4 ovarian) 17.4 µM | GI50 (OVCAR-5 ovarian) 20.9 µM | GI50 (OVCAR-8 ovarian) 27.6 µM | GI50 (PC-3 prostate) 13.6 µM | GI50 (RPMI-8226 leukemia) 14.4 µM | GI50 (RXF 393 renal) 16.2 µM | GI50 (SF-268 CNS) 19.3 µM | GI50 (SF-295 CNS) 18 µM | GI50 (SF-539 CNS) 17.5 µM | GI50 (SK-MEL-2 melanoma) 18.4 µM | GI50 (SK-MEL-28 melanoma) 22.2 µM | GI50 (SK-MEL-5 melanoma) 11.6 µM | GI50 (SK-OV-3 ovarian) 23.8 µM | GI50 (SN12C renal) 26 µM | GI50 (SNB-19 CNS) 14.2 µM | GI50 (SNB-75 CNS) 18.4 µM | GI50 (SR leukemia) 7.06 µM | GI50 (SW-620 colon) 17.4 µM | GI50 (T-47D breast) 7.04 µM | GI50 (TK-10 renal) 27.3 µM | GI50 (U251 CNS) 22.4 µM | GI50 (UACC-257 melanoma) 26.9 µM | GI50 (UACC-62 melanoma) 10.3 µM | GI50 (UO-31 renal) 13.5 µM
68.1 µM: TGI (PC-3 prostate)
63.1 µM: TGI (786-0 renal)
56.3 µM: TGI (M14 melanoma)
51.2 µM: TGI (MDA-MB-231 breast)
89.1 µM: TGI (NCI-H226 lung) | TGI (OVCAR-5 ovarian)
51.9 µM: TGI (MOLT-4 leukemia)
77.6 µM: TGI (BT-549 breast)
58.8 µM: TGI (NCI-H522 lung)
46.2 µM: TGI (OVCAR-3 ovarian)
52.2 µM: TGI (CAKI-1 renal)
49.5 µM: TGI (SF-295 CNS)
31.9 µM: TGI (HCT-116 colon)
55.7 µM: TGI (SK-MEL-28 melanoma)
63.5 µM: TGI (HOP-62 NSCLC)
81.4 µM: TGI (TK-10 renal)
45.7 µM: TGI (SK-MEL-2 melanoma)
19.8 µM: TGI (HOP-92 NSCLC)
51.4 µM: TGI (NCI/ADR-RES ovarian)
53.3 µM: TGI (HS 578T breast)
23.9 µM: TGI (SK-MEL-5 melanoma)
45.3 µM: TGI (T-47D breast)
39.1 µM: TGI (MDA-MB-435)
70.6 µM: TGI (RXF 393 renal)
